Data from ChEMBL document CHEMBL1201862, “PubChem BioAssay data set” (2004).
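All cell lines were grown in 96-well plates and treated with compound for 48 hours. GI50: concentration for 50% inhibition of growth.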 Activity calls are given as the source filed them. No stated cut-off is given here; in the data, active = GI50 up to about 1.1 µM and inactive = higher.

Key:
Experiment in all cases: growth of human tumour cells (NCI), 48 h
ACHN = tested on: ACHN
DLD-1 = tested on: DLD-1
EKVX = tested on: EKVX
HCT-15 = tested on: HCT-15
HOP-92 = tested on: HOP-92
HT-29 = tested on: HT-29
KM12 = tested on: KM12
LOX IMVI = tested on: LOX IMVI
Malme-3M = tested on: Malme-3M
NCI-H226 = tested on: NCI-H226
NCI-H522 = tested on: NCI-H522
OVCAR-3 = tested on: OVCAR-3
OVCAR-4 = tested on: OVCAR-4
OVCAR-5 = tested on: OVCAR-5
OVCAR-8 = tested on: OVCAR-8
RXF 393 = tested on: RXF 393
SF-295 = tested on: SF-295
SK-MEL-28 = tested on: SK-MEL-28
SN12C = tested on: SN12C
U-251 = tested on: U-251

Compound: Cc1cc(OCC(O)CO)ccc1Cl (stereo not given)
- GI50 (ACHN): > 100 µM (inactive)
- GI50 (DLD-1): > 100 µM (inactive)
- GI50 (EKVX): > 100 µM (inactive)
- GI50 (HCT-15): > 100 µM
- GI50 (HOP-92): > 100 µM (inactive)
- GI50 (HT-29): > 100 µM (inactive)
- GI50 (KM12): > 100 µM (inactive)
- GI50 (LOX IMVI): > 100 µM (inactive)
- GI50 (Malme-3M): > 100 µM (inactive)
- GI50 (NCI-H226): > 100 µM (inactive)
- GI50 (NCI-H522): > 100 µM (inactive)
- GI50 (OVCAR-3): > 100 µM (inactive)
- GI50 (OVCAR-4): > 100 µM (inactive)
- GI50 (OVCAR-5): > 100 µM (inactive)
- GI50 (OVCAR-8): > 100 µM (inactive)
- GI50 (RXF 393): > 100 µM (inactive)
- GI50 (SF-295): > 100 µM (inactive)
- GI50 (SK-MEL-28): > 100 µM (inactive)
- GI50 (SN12C): > 100 µM (inactive)
- GI50 (U-251): > 100 µM (inactive)
